Experiment [1] concerns Hyp1-NLuc Plasmodium falciparum-infected erythrocytes (new permeability pathway, NPP). Briefly: microbe, parasite or virus in culture. The note with it: Erythrocyte, 0.33 h, read-out: Mean RLU at 28 min (As % of DMSO control).
Experiment [2] shares this test system. The experiment can be described thus: microbe, parasite or virus in culture. The note with it: Erythrocyte, 0.33 h, read-out: % of control remaining.

Like-named read-outs stand apart in the source and are kept apart here.

In the case of `CCN(CC)CCn1c(=N)n(CC(O)c2ccc(Cl)c(Cl)c2)c2ccccc21` (stereo not drawn) [MMV000248], the figures for the activity at 2 µM in experiment [1] and in experiment [2] were 97.6% and 98.3%, respectively.
On the same counts, the results for `CCOc1ccc(Nc2c3ccccc3nc3ccccc23)cc1` [MMV000304] are 107% and 109%.
For the molecule `Cc1ccc2nc(C)cc(Nc3cccc(C(F)(F)F)c3)c2c1` [MMV000326], the activity at 2 µM is 110% in experiment [1] and 118% in experiment [2].
For `CCn1c2c(c(=N)c3c1CCC3)CCCC2` [MMV000340], in that order: 105% and 104%.
Consider `Oc1ccc(Br)cc1CN1CCN(Cc2cccc(F)c2)CC1` [MMV000356], for which the activity at 2 µM in experiment [1] worked out at 101%; in experiment [2] it was 98.9%.
For `CC(C)(C)c1ccc2c(c1)CN(Cc1ccc(Cl)cc1)CO2` [MMV000442], in that order: 109% and 113%.
Take `CCOc1ccc2c(c1)CN(Cc1ccc(Cl)cc1)CO2` [MMV000443]: the activity at 2 µM in experiment [1] was 99.2%; in experiment [2], 94.2%.
With `CCCCCn1c(=N)n(CC(O)COc2cccc(C)c2)c2ccccc21` (stereo not drawn) [MMV000444], the activity at 2 µM in experiment [1] amounted to 95.8%; in experiment [2], 99.2%.
For `CCCCCCn1c(=N)n(CC(O)COc2cccc(C)c2)c2ccccc21` (stereo not drawn) [MMV000445], the values for the activity at 2 µM in experiment [1] and in experiment [2] were 87.2% and 93.8%, respectively.
In the case of `CN(C)CCCNc1c2ccccc2nc2ccccc12` [MMV000448], the activity at 2 µM in experiment [1] and in experiment [2] was 102% throughout.
On to `CCOc1cc2c(cc1OCC)C(c1cc(Cl)ccc1O)NCC2` (stereo not drawn) [MMV000478], for which the values for the activity at 2 µM in experiment [1] and in experiment [2] were 104% and 95.3%, respectively.
On to `CCOc1cc2c(cc1OCC)C(c1cc(Cl)c(O)c(OCC)c1)NCC2` (stereo not drawn) [MMV000481], for which the activity at 2 µM was found to be 112% in experiment [1] and 114% in experiment [2].
For `CCOc1cc2c(cc1OCC)C(c1cc(C)c(O)c(C)c1)NCC2` (stereo not drawn) [MMV000483], the activity at 2 µM in experiment [1] was 103%; in experiment [2], 102%.
For `CCN(CC)c1cc(C)c2cc(NC(=O)c3cccc(OC)c3)ccc2n1` [MMV000498], in that order: 107% and 118%.
On to `CCCN(CCC)CCCNC(=O)c1cc2c(-c3ccc(OC)c(OC)c3)nn(C)c2s1` [MMV000561], for which the values for the activity at 2 µM in experiment [1] and in experiment [2] were 107% and 106%, respectively.
On the same counts, the results for `COc1ccc(C2Sc3ccccc3N=C3C2=C(O)c2ccccc23)cc1` (stereo not drawn) [MMV000563] are 101% and 106%.
On the same counts, the results for `CCc1ccc(Nc2cc(C)c3ccc(O)cc3n2)cc1` [MMV000570] are 106% and 107%.
For the molecule `COc1ccc(-c2cc(=O)oc3c4c(ccc23)OCN(Cc2ccc(F)cc2)C4)cc1` [MMV000604], the activity at 2 µM in experiment [1] was 104%; in experiment [2], 106%.
Take `COc1ccc(C(O)(CCC(C)C)C(CN2CCOCC2)c2ccc(Cl)cc2)cc1` (stereo not drawn) [MMV000617]: the activity at 2 µM stood at 116% in experiment [1] and 131% in experiment [2].
On to `CCCCC(O)(c1ccc(Cl)cc1)C(CN1CCOCC1)c1ccc(Cl)cc1` (stereo not drawn) [MMV000619], for which the activity at 2 µM in experiment [1] amounted to 108%; in experiment [2], 114%.
Take `CC(O)(c1ccc(Cl)cc1)C(CN1CCCCC1)c1ccccc1` (stereo not drawn) [MMV000620]: the activity at 2 µM in experiment [1] stood at 100%; in experiment [2], 114%.
On to `CCCCCCC(O)(c1ccc(F)cc1)C(CN1CCOCC1)c1ccccc1` (stereo not drawn) [MMV000621], for which the figures for the activity at 2 µM in experiment [1] and in experiment [2] were 106% and 117%, respectively.
For `CC1CCCCN1CCCNC(=O)c1ccc2c(c1)sc1nc(-c3ccc(F)cc3)cn12` (stereo not drawn) [MMV000634], the activity at 2 µM in experiment [1] came out at 94.7%; in experiment [2], 67.5%.
As for `COc1ccc(NC(=O)C2c3ccccc3C(=O)N(CC(C)C)C2c2cccs2)cc1Cl` (stereo not drawn) [MMV000642], the activity at 2 µM in experiment [1] was determined as 94.6%; in experiment [2], 94%.
Turning to `COc1ccccc1CNC(=O)C1c2ccccc2C(=O)N(CC(C)C)C1c1cccs1` (stereo not drawn) [MMV000648], the values for the activity at 2 µM in experiment [1] and in experiment [2] were 108% and 105%, respectively.
`CCOc1ccccc1CNC(=O)C1c2ccccc2C(=O)N(CC(C)C)C1c1cccs1` (stereo not drawn) [MMV000653]: the activity at 2 µM in experiment [1] was 105%; in experiment [2], 119%.
In the case of `COc1ccc(NC(=O)C2c3ccccc3C(=O)N(CC(C)C)C2c2cccs2)cc1` (stereo not drawn) [MMV000662], the activity at 2 µM stood at 85.9% in experiment [1] and 85.7% in experiment [2].
Regarding `Cc1ccc(C2CC(C(F)(F)F)n3nc(C(=O)N4CCN(C(c5ccccc5)c5ccccc5)CC4)cc3N2)cc1` (stereo not drawn) [MMV000699], the activity at 2 µM in experiment [1] was found to be 101%; in experiment [2], 100%.
Take `CCOC(=O)c1cnc2ccc(OC)cc2c1Nc1ccc(N2CCN(C)CC2)cc1` [MMV000704]: the activity at 2 µM in experiment [1] came to 106%; in experiment [2] it was 94.6%.
Turning to `Cc1ccnc(NC(c2cccc(OCc3ccccc3)c2)c2ccc3cccnc3c2O)c1` (stereo not drawn) [MMV000720], the activity at 2 µM was determined as 102% in experiment [1] and 108% in experiment [2].
As for `Oc1ccc(-c2nc(-c3ccc4oc5ccc(-c6[nH]c(-c7ccc(O)cc7)nc6-c6ccccc6)cc5c4c3)c(-c3ccccc3)[nH]2)cc1` [MMV000753], the activity at 2 µM in experiment [1] is 88.1%; in experiment [2], 89.5%.
Consider `Oc1c(CN2CCN(c3ccccc3F)CC2)cc(Br)c2cccnc12` [MMV000760], for which the activity at 2 µM came to 112% in experiment [1] and 114% in experiment [2].
On the same counts, the results for `CCCOCc1cc(CN2CCN(c3cccc(Cl)c3)CC2)c(O)c2ncccc12` [MMV000787] are 101% and 111%.
Turning to `CC(C)OCc1cc(CN2CCN(c3cccc(Cl)c3)CC2)c(O)c2ncccc12` [MMV000788], the figures for the activity at 2 µM in experiment [1] and in experiment [2] were 109% and 107%, respectively.
As for `OC(CNCc1ccccc1)Cn1c2ccccc2c2ccccc21` (stereo not drawn) [MMV000839], the activity at 2 µM in experiment [1] amounted to 107%; in experiment [2], 110%.
For `OC(CNC1CCCC1)Cn1c2ccccc2c2ccccc21` (stereo not drawn) [MMV000848], in that order: 112% and 110%.
Take `Cc1ccc(NC(=O)Nc2cccc(Cl)c2)cc1F` [MMV000911]: the activity at 2 µM is 115% in experiment [1] and 114% in experiment [2].
Regarding `COc1ccc2c(c1OC)C(=O)N1c3ccccc3N=C(c3ccc(C)cc3)CC21` (stereo not drawn) [MMV000917], the results for the activity at 2 µM in experiment [1] and in experiment [2] were 90.9% and 94.9%, respectively.
Turning to `COc1ccc(Nc2nc(NCc3ccccc3)c3ccccc3n2)cc1` [MMV000963], the activity at 2 µM in experiment [1] was found to be 103%; in experiment [2] it was 106%.
Regarding `O=C1CC(O)(C(F)(F)C(F)(F)F)Oc2ccccc21` (stereo not drawn) [MMV000972], the activity at 2 µM in experiment [1] turned out to be 90.2%; in experiment [2] it was 82.2%.
For `CN1CCN(c2nc(Nc3ccc(O)cc3)nc3ccccc23)CC1` [MMV000986], in that order: 102% and 101%.
For `Cc1ccc(Nc2nc(NCCO)c3ccccc3n2)cc1C` [MMV001038], in that order: 102% and 102%.
With `OCCNc1nc(Nc2ccc(Cl)c(Cl)c2)nc2ccccc12` [MMV001041], the figures for the activity at 2 µM in experiment [1] and in experiment [2] were 97.4% and 95.1%, respectively.
In the case of `CC(C)c1ccc(CNCC(O)c2ccccc2)cc1` (stereo not drawn) [MMV001049], the activity at 2 µM in experiment [1] amounted to 113%; in experiment [2], 116%.
For `CCOc1cccc2sc(N(Cc3cccnc3)C(=O)C3CCCCC3)nc12` [MMV001230], in that order: 103% and 113%.
As for `COc1ccc2sc(N(Cc3cccnc3)C(=O)c3ccc(C#N)cc3)nc2c1` [MMV001239], the activity at 2 µM in experiment [1] worked out at 92.1%; in experiment [2], 64.1%.
Regarding `COc1ccc(C)c2sc(N(Cc3cccnc3)C(=O)c3ccc(C#N)cc3)nc12` [MMV001241], the activity at 2 µM in experiment [1] came out at 101%; in experiment [2], 100%.
For `CSc1ccccc1C(=O)Nc1nc(-c2ccccn2)cs1` [MMV001246], the figures for the activity at 2 µM in experiment [1] and in experiment [2] were 112% and 106%, respectively.
Regarding `CCCCc1ccc(NS(=O)(=O)c2cc3c4c(c2)CCN4C(=O)CC3)cc1` [MMV001255], the activity at 2 µM amounted to 100% in experiment [1] and 89.2% in experiment [2].
With `O=C(Nc1ccc(Br)cc1)Nc1cccc(Cl)c1` [MMV001318], the activity at 2 µM in experiment [1] is 105%; in experiment [2] it was 107%.
Regarding `CC1CC(C)CN(C(=O)c2ccc(Cl)cc2Cl)C1` (stereo not drawn) [MMV001344], the activity at 2 µM was found to be 106% in experiment [1] and 107% in experiment [2].
`CCN(CC)CCNc1ccnc2cc(Cl)ccc12` [MMV006087]: the activity at 2 µM in experiment [1] turned out to be 107%; in experiment [2], 105%.
Take `c1ccc(CNc2nc(Nc3ccccc3)nc3ccccc23)cc1` [MMV006169]: the activity at 2 µM in experiment [1] was determined as 102%; in experiment [2] it was 114%.
For `CN1CCN(c2ccc(Nc3c4ccccc4nc4ccccc34)cc2)CC1` [MMV006172], the activity at 2 µM amounted to 97.7% in experiment [1] and 96.4% in experiment [2].
`O=C(NCc1ccco1)C1CCN(S(=O)(=O)c2ccc(Cl)cc2)CC1` [MMV006188]: the results for the activity at 2 µM in experiment [1] and in experiment [2] were 106% and 112%, respectively.
For the molecule `Cc1cc(NCCN2CCCCC2)c2ccc3ccccc3c2n1` [MMV006203], the activity at 2 µM in experiment [1] came out at 103%; in experiment [2], 99.9%.
For `CCOC(=O)c1cnc2c(C)cccc2c1Nc1ccc(C(C)=O)cc1` [MMV006250], in that order: 95.8% and 103%.
As to `CCc1c(C)c(=N)c2ccccc2n1C` [MMV006278], the results for the activity at 2 µM in experiment [1] and in experiment [2] were 98.8% and 99.6%, respectively.
On to `CCN(CC)CCNc1ccnc2cc3ccccc3cc12` [MMV006303], for which the results for the activity at 2 µM in experiment [1] and in experiment [2] were 109% and 107%, respectively.
In the case of `CN(C)c1ccc(C=Cc2nc(=O)c3ccccc3o2)cc1` [MMV006309], the activity at 2 µM in experiment [1] stood at 36.4%; in experiment [2], 19%.

The record behind these values is paper PMC5118696, “Identification of inhibitors that dually target the new permeability pathway and dihydroorotate dehydrogenase in the blood stage of Plasmodium falciparum” (Scientific Reports, 2016).
